In US20250213588A1, “STERILIZATION METHOD OF PHARMACEUTICAL PREPARATION AND PACKAGING” (SANTEN PHARMACEUTICAL CO., LTD., priority 2022, published 2025):
“Also recorded” adds a separate entry of the source.

Experiments:
Type in all cases: physicochemical
[1] = Photostability test (1): irradiation at specific wavelengths; settings: Preparations 1 and 2; irradiated for 24 hours with multi-wavelength irradiation spectrometer; HPLC (FIG. 2)
Protocol: The stability of the aqueous pharmaceutical composition comprising AFDX0250 or a salt thereof under light irradiation was studied.
Preparation 1 with the composition shown in the above Table 1 and Preparation 2 with the composition shown in Table 4 were prepared in usual manners. The prepared preparations were used as test preparations.
The prepared test preparations were irradiated at specific wavelengths using multi-wavelength irradiation spectrometer for 24 hours, and the amount of AFDX0250 in each test preparation at each irradiation wavelength after the irradiation was quantified by high performance liquid chromatography to calculate the residual ratio of AFDX0250 (%). The residual ratio of AFDX0250 (%) represents the ratio of AFDX0250 (%) after irradiation when the amount of AFDX0250 in the test formulation is 100%.

[2] = Absorption wavelength measurement test (UV-visible spectrophotometer); settings: 0.0025% AFDX0250 solution in acetonitrile
Protocol: The absorption wavelength of AFDX0250 was measured.
AFDX0250 (10 mg) was dissolved in acetonitrile, and the solution was adjusted exactly to 100 mL to prepare 0.01% AFDX0250 solution. The solution was diluted 4-fold to prepare 0.0025% AFDX0250 solution. The prepared 0.0025% AFDX0250 solution was used as a test preparation.
The absorption spectrum of the prepared test preparation was measured using ultraviolet visible spectrophotometer.

[3] = Stability evaluation test after sterilization treatment; settings: for Hydrolysate (%): Example 6 test preparation; for Residual ratio (%): Example 6 test preparation (0.25 g AFDX0250 in 50 mL, citrate buffer, sodium chloride)
Protocol: An aqueous pharmaceutical composition comprising AFDX0250 or a salt thereof was sterilized to evaluate the stability of AFDX0250 in a preparation.
Sodium citrate hydrate (2.5 g) was dissolved in purified water and the solution was adjusted exactly to 100 mL to prepare 2.5% sodium citrate hydrate solution. Citric acid hydrate (0.2 g) was dissolved in purified water and the solution was adjusted exactly to 100 mL to prepare 0.2% citric acid hydrate solution. Sodium chloride (5 g) was dissolved in purified water and the solution was adjusted exactly to 50 mL to prepare 10% sodium chloride solution. 0.25 g of AFDX0250 was weighed, the weighed AFDX0250 was mixed with 10 mL each of 2.5% sodium citrate hydrate solution, 0.2% citric acid hydrate solution and 10% sodium chloride solution, and then the solution was adjusted exactly to 50 mL with purified water to prepare a test preparation.
The prepared test preparation was subjected to gamma radiation sterilization, sterilization by filtration using a filter or autoclaved (AC) sterilization to prepare a sterile formulation. The amount of AFDX0250 after each sterilization treatment was quantified by high performance liquid chromatography to calculate the residual ratio of AFDX0250 (%). The residual ratio of AFDX0250 (%) represents the ratio of AFDX0250 (%) after sterilization treatment when the amount of AFDX0250 in the test preparation is 100%. In addition, the amount of AFDX0250-derived hydrolysate (5,11-dihydro-6H-pyrido[2,3-b][1,4]benzodiazepin-6-one) in each test preparation excluding the test preparation subjected to gamma radiation sterilization was quantified by high performance liquid chromatography.

[4] = after AC (autoclaved) sterilization
[5] = after sterilization by filtration using a filter

SMILES: CCN(CC)C[C@H]1CCCCN1CC(=O)N1c2ccccc2C(=O)Nc2cccnc21 [AFDX0250, (R)-11-[2-[2-[(diethylamino)methyl]-1-piperidinyl]acetyl]-5,11-dihydro-6H-pyrido[2,3-b][1,4]benzodiazepin-6-one]
- degradation of AFDX0250 under irradiation at specific wavelengths [1]: degraded at a wavelength of from 216 to 310 nm and 372 nm; also recorded: particularly degraded at a wavelength of 370 nm
- absorption spectrum of AFDX0250 [2]: no absorption of AFDX0250 was observed at the longer wavelengths than about 330 nm
- Hydrolysate (%) [3, 4]: 0.37%
- Residual ratio (%) [3, 4]: 93.8%
- Residual ratio (%) ([3]; after gamma radiation sterilization): 55.7%
- Hydrolysate (%) [3, 5]: 0.06%
- Residual ratio (%) [3, 5]: 100.3%
